Assays:
Assay type in all cases: in vivo, Lewis rats
CIA rats [1] = experiment: Maximum arthritic index (MAI) of CIA rats fed PA extracts (Embodiment 4)
Experimental: After immunization, the rats were observed three times a week. The changes of redness and swelling or the like in limbs were recorded, and photographs were taken and filed for comparison. The scoring of the examinations was based on 5 grades as follows:
Maximum arthritic index, average MAI for each group was calculated as follows: Average MAI=Total of MAI recorded in limbs of each rat (0: no CIA occurs, 16: highest score)/4/total rat number of each group
(§1) In the present animal test, the test animals and apparatus used are the same as those disclosed in embodiment 2.
(§2) The animal test scheme is shown as FIG. 11. Bovine collagen type II was dissolved in 0.1 M acetic acid solution, stirred to dissolve thoroughly, and formulated into solutions of concentrations of 1.5 and 3 mg/ml, which were stored at 4° C. for later use. For the first immune injection, 100 μl of C II solution was emulsified with an equal amount of CFA, and injected subcutaneously (200 μl/rat) in the root portions of tails of the rats after the emulsification was complete. […] After about 15 days, the second immunization was done. 100 μl of C II solution was emulsified with an equal amount of IFA, and injected subcutaneously (200 μl/rat) in the root portions of tails of the rats after the emulsification was complete. Approximately from Day 18, the symptoms of arthritis were observed (CIA rats), and PA and CBX were fed from Day 19 until Day 38.

CIA rats [2] = experiment: Joint swelling degree (toe thickness) of CIA rats fed PA extracts (Embodiment 4)
Experimental: The thickness changes of soles of rats were measured by a Vernier Caliper (twice per week), and there were eight measurement sites in total in each rat, including one site at the center of each sole of the two front feet respectively, and three sites in each of the two back feet (ankle joint, sole, and root portion of toe) respectively.
as §1, §2

Rheumatoid factor (RF) = experiment: Serum RF of CIA rats fed PA extracts (Embodiment 4)
Experimental: 1. Collagen was formulated in a coating buffer to a concentration of 40 μg/ml, 0.1 ml of which was added into a 96-well micro plate respectively, and was kept in 4° C. overnight.
2. After washing with Tris buffer three times, 0.2 ml of blocking buffer containing 1% BSA was added into each well. The reaction lasted for 2 hours at room temperature, and then was washed by Tris buffer three times again.
3. After the serum sample was diluted appropriately with Tris buffer containing 0.05% Tween 20 ( 1/20 or 1/40), 0.1 ml serum sample was added into each well of the 96-well micro plate. The reaction lasted for 2 hours at room temperature, and then was washed by Tris buffer three times again.
4. Coated anti-rat immunoglobulin M (IgM) was combined with horseradish […] (HRP), appropriately diluted ( 1/12000), and then added into the 96-well micro plate. The reaction lasted 2 hours at room temperature, and then was washed by Tris buffer three times again.
5. 0.1 ml of tetramethyl benzidine (TMB) was directly added into each well for color reaction, and then a stopping solution was added to stop the reaction. Finally, absorption (O.D) value was read out at the wavelength of 450 nm.
as §1, §2

IL-6 = experiment: PEC cytokine IL-6, CIA rats fed PA extracts (Embodiment 4); settings: PEC of CIA rats, gavage Day 19-38; doses as in the 4th table
Experimental: (§3) 1. After carbon dioxide euthanasia, the outer furs of the rat abdominal cavity were cut out by scissors, to expose the whole abdominal cavity.
(§4) 2. HBSS buffer was injected into the abdominal cavity batch-wise by a 10 ml syringe to make a total volume of about 20 ml/rat.
(§5) 3. The abdominal cavity of the rat was opened after the abdomen was gently kneaded. An incision of about 2 cm was made in the abdominal cavity by using scissors. Peritoneal exudation cell (PEC) liquid (about 10 to 15 ml of cellular fluid could be collected) was drawn with a syringe, and placed into a 50 ml centrifuge tube.
(§6) 4. The supernatant was removed after the liquid was centrifuged at 1500 rpm for 5 minutes. 10 ml of HBSS buffer was added to wash, and then centrifuged, after which the supernatant was removed.
(§7) 5. The cell concentration was adjusted to 2×10^6 cells/ml with a fresh culture medium (containing antibiotics).
(§8) 6. The cell suspension was divided into a 48-well plate at 0.5 ml/well.
(§9) 7. An additional. 0.5 ml of lipopolysaccharides (LPS) (20 μg/ml) was added separately, making a final concentration of 10 μg/ml.
(§10) 8. Finally, it was placed into a 37° C. incubator for 24 hours. The supernatant was collected, and stored in −20° C. The concentrations of cytokine TNF-α, IL-6, and IL-1β were analyzed by using ELISA kit.
In the present animal test, the test animals and apparatus used are the same as those disclosed in embodiment 2. […]

IL-1β = experiment: PEC cytokine IL-1β, CIA rats fed PA extracts (Embodiment 4)
Experimental: as §3, §4, §5, §6, §7, §8, §9, §10, §1
The animal test scheme is shown as FIG. 11. Bovine collagen type II was dissolved in 0.1 M acetic acid solution, stirred to dissolve thoroughly, and formulated into solutions of concentrations of 1.5 and 3 mg/ml, which were stored at 4° C. for later use. For the first immune injection, 100 μl of C II solution was emulsified with an equal amount of CFA, and injected subcutaneously (200 μl/rat) in the root portions of tails of the rats after the emulsification was complete. […] After about 15 days, the second immunization was done. […]

[3] = gavage Day 19-38, doses as in the 4th table
[4] = PEC of CIA rats, gavage Day 19-38, doses as in the 4th table

Cc1ccc(-c2cc(C(F)(F)F)nn2-c2ccc(S(N)(=O)=O)cc2)cc1 [CBX, Ceelebrex]
MAI, inhibitory effect (CIA rats [1]; [3]): (40%)
MAI, inhibitory effect (grade) (CIA rats [1]; [3]): ++ (“++” represents 25 to 50% of inhibitory effect)
effect on the arthritic indices (MAI) of CIA rats (CIA rats [1]; gavage Day 19 until Day 38, FIG. 13): most preferred
Toe thickness, inhibitory effect (grade) (CIA rats [2]; gavage Day 19-38, CBX 18, PA-EtOH 40.5, PA-F1 3.0, PA-F2 1.13, PA-F3 11.3, PA-F4 11.3 mg/kg/day): ++ (“++” represents 25 to 50% of inhibitory effect)
Toe thickness, inhibitory effect (CIA rats [2]; [3]): (49%)
reduction of serum RF value (Rheumatoid factor (RF); Day 30 compared to Day 18, FIG. 15): about 52%
reduction of serum RF value (Rheumatoid factor (RF); Day 37 compared to Day 18, FIG. 15): about 66%
RF, inhibitory effect (Rheumatoid factor (RF); [3]): (43%)
RF, inhibitory effect (grade) (Rheumatoid factor (RF); [3]): ++ (“++” represents 25 to 50% of inhibitory effect)
IL-6, inhibitory effect (IL-6): (36%)
IL-6, inhibitory effect (grade) (IL-6): ++ (“++” represents 25 to 50% of inhibitory effect)
IL-1β, inhibitory effect (IL-1β; [4]): (38%)
IL-1β, inhibitory effect (grade) (IL-1β; [4]): ++ (“++” represents 25 to 50% of inhibitory effect)
inhibition of PEC secreting IL-1β (IL-1β; PEC of fed CIA rats, FIG. 17): significantly inhibits

Source: patent publication US7531194B2, “Plant extracts for the treatment of rheumatoid arthritis” (Development Center for Biotechnology, priority 2006, dated 2009)
